# Data published in patent US20180093956A1, “SUBSTITUTED PHTHALAZINES” (AbbVie Inc., priority 2015, published 2018).
# Target: SUV420H1 enzyme (Homo sapiens, UniProt Q4FZB7)
# Assay: TR-FRET SAH SUV420H1 enzyme inhibition assay
# Type: biochemical
# Conditions: Histone Peptide H4(8-30)me1 and SAM, TR-FRET detection of SAH, read-out: TR-FRET SAH_SUV420H1 IC50
# Protocol: Test compounds were dispensed by a Labcyte Echo in 384-well low volume assay plates with 3-fold serial dilutions from 50 μM to 0.00075 μM. 5 μL of SUV420H1 enzyme (Abbvie) at 90 nM was added to all wells except for the no enzyme control wells and incubated for 30 minutes at room temperature before 5 μL of Histone Peptide H4(8-30)me1 (Anaspec) at 5 μM and SAM at 4 μM was added to all wells. The plates were incubated in a humidified chamber overnight at room temp and then 10 μL of the detection reagent that contained RIPA buffer (50 mM Tris-HCl, pH 8.0, 150 mM sodium chloride, 1.0% Igepal CA-630 (NP-40), 0.5% sodium deoxycholate and 0.1% sodium dodecyl sulfate) (Sigma) with 2 nM of Terbium chelate anti S-adenosyl-L-homocysteine (SAH) (Abbvie) antibody and Oregon Green labeled SAH at 4 nM was added. The plates were further incubated for 4 hours at room temperature. The plates were read in a Perkin Elmer Envision using a TR-FRET protocol with Excitation set at 335 nm and Emission at 520 and 495 nm. To generate dose response curves the data is normalized to percent inhibition by setting the average of the plus and minus enzyme control wells to 0% and 100% inhibition respectively. The ICso values for the compounds are generated by fitting the normalized data with Accelrys Assay Explorer 3.3 to a sigmoidal curve model using […], Y=(100*x^n)/(K^n+x^n), where Y is the measured response, x is the compound concentration, n is the Hill Slope and K is the IC50 and the lower and higher asymptotes are constrained to 0 and 100 respectively.
# Chain of SUV420H1 enzyme (Q4FZB7 whole entry): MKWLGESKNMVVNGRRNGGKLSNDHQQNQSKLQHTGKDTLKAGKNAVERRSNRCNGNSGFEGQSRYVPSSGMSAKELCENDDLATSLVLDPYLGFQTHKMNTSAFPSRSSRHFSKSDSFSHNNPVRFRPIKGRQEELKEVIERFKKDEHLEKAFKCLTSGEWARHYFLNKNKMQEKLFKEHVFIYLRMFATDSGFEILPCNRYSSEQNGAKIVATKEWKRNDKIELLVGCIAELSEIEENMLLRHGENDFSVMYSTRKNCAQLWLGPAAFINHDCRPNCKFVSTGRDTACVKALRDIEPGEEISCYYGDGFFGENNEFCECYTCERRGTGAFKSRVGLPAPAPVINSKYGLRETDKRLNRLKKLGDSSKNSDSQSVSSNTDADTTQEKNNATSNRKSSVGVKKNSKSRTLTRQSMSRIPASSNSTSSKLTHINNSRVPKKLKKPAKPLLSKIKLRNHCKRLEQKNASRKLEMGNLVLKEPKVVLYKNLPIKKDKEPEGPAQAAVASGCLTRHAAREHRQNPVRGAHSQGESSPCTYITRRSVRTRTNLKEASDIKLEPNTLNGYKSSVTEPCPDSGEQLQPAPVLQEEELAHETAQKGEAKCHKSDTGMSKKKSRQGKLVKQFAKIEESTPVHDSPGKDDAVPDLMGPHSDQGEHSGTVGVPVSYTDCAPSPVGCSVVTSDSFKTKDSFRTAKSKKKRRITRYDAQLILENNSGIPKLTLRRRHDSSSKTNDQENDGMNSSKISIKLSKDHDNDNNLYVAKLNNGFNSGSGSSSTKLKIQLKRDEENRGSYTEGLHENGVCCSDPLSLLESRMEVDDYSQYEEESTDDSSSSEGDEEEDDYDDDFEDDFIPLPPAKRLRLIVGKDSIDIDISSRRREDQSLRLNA
row,Compound,IC50
1,"O[C@@H]1CC[C@H](Nc2nnc(Cl)c3cc(Cl)c(Cl)cc23)C1 (racemic) [Example 13, rac-(1R,3S)-3-[(4,6,7-trichlorophthalazin-1-yl)amino]cyclopentanol]",2630 nM
2,"Clc1cc2c(NC3CCCC3)nnc(-c3ccccc3)c2cc1Cl [Example 2, 6,7-dichloro-N-cyclopentyl-4-phenylphthalazin-1-amine]",28900 nM
3,"Clc1cc2c(NC3CCCC3)nnc(N3CCOCC3)c2cc1Cl [Example 10, 6,7-dichloro-N-cyclopentyl-4-(morpholin-4-yl)phthalazin-1-amine]",48400 nM
4,"Clc1cc2c(NC3CCCC3)nnc(N3CCCC3)c2cc1Cl [Example 11, 6,7-dichloro-N-cyclopentyl-4-(pyrrolidin-1-yl)phthalazin-1-amine]",> 50000 nM
5,"Fc1cc(-c2nnc(NC3CCCC3)c3cc(Cl)c(Cl)cc23)ccn1 [Example 12, 6,7-dichloro-N-cyclopentyl-4-(2-fluoropyridin-4-yl)phthalazin-1-amine]",827 nM
6,"Clc1cc2c(NC3CCCC3)nnc(-c3ccc(CN4CCOCC4)cc3)c2cc1Cl [Example 14, 6,7-dichloro-N-cyclopentyl-4-[4-(morpholin-4-ylmethyl)phenyl]phthalazin-1-amine]",19100 nM
7,"Clc1cc2c(NC3CCCC3)nnc(-c3ccnc(N4CCCC4)c3)c2cc1Cl [Example 15, 6,7-dichloro-N-cyclopentyl-4-[2-(pyrrolidin-1-yl)pyridin-4-yl]phthalazin-1-amine]",> 50000 nM
8,"CN1CCN(c2cc(-c3nnc(NC4CCCC4)c4cc(Cl)c(Cl)cc34)ccn2)CC1 [Example 16, 6,7-dichloro-N-cyclopentyl-4-[2-(4-methylpiperazin-1-yl)pyridin-4-yl]phthalazin-1-amine]",8350 nM
9,"Clc1cc2c(NC3CCCC3)nnc(-c3ccnc(N4CCOCC4)c3)c2cc1Cl [Example 17, 6,7-dichloro-N-cyclopentyl-4-[2-(morpholin-4-yl)pyridin-4-yl]phthalazin-1-amine]",7380 nM
10,"CN1CCN(c2ccc(-c3nnc(NC4CCCC4)c4cc(Cl)c(Cl)cc34)cn2)CC1 [Example 21, 6,7-dichloro-N-cyclopentyl-4-[6-(4-methylpiperazin-1-yl)pyridin-3-yl]phthalazin-1-amine]",1460 nM
11,"Clc1cc2c(NC3CCCC3)nnc(-c3ccc(N4CCOCC4)nc3)c2cc1Cl [Example 22, 6,7-dichloro-N-cyclopentyl-4-[6-(morpholin-4-yl)pyridin-3-yl]phthalazin-1-amine]",1010 nM
12,"CC(C)(C)OC(=O)N1CC=C(c2nnc(NC3CCCC3)c3cc(Cl)c(Cl)cc23)CC1 [Example 23, tert-butyl 4-[6,7-dichloro-4-(cyclopentylamino)phthalazin-1-yl]-3,6-dihydropyridine-1(2H)-carboxylate]",1510 nM
13,"Clc1cc2c(NC3CCCC3)nnc(C3=CCNCC3)c2cc1Cl [Example 24, 6,7-dichloro-N-cyclopentyl-4-(1,2,3,6-tetrahydropyridin-4-yl)phthalazin-1-amine]",1280 nM
14,"CC(=O)N1CC=C(c2nnc(NC3CCCC3)c3cc(Cl)c(Cl)cc23)CC1 [Example 25, 1-{4-[6,7-dichloro-4-(cyclopentylamino)phthalazin-1-yl]-3,6-dihydropyridin-1(2H)-yl}ethanone]",1100 nM
15,"Clc1cc2c(NC3CCCC3)nnc(-c3ccc(N4CCNCC4)nc3)c2cc1Cl [Example 27, 6,7-dichloro-N-cyclopentyl-4-[6-(piperazin-1-yl)pyridin-3-yl]phthalazin-1-amine]",1320 nM
16,"OC1CCN(c2ccc(-c3nnc(NC4CCCC4)c4cc(Cl)c(Cl)cc34)cn2)CC1 [Example 28, 1-{5-[6,7-dichloro-4-(cyclopentylamino)phthalazin-1-yl]pyridin-2-yl}piperidin-4-ol]",572 nM
17,"Clc1cc2c(NC3CCCC3)nnc(-c3ccc(N4CCCC4)nc3)c2cc1Cl [Example 31, 6,7-dichloro-N-cyclopentyl-4-[6-(pyrrolidin-1-yl)pyridin-3-yl]phthalazin-1-amine]",2740 nM
18,"CN(C)c1cc(-c2nnc(NC3CCCC3)c3cc(Cl)c(Cl)cc23)ccn1 [Example 32, 6,7-dichloro-N-cyclopentyl-4-[2-(dimethylamino)pyridin-4-yl]phthalazin-1-amine]",11200 nM
19,"NC1CCN(c2ccc(-c3nnc(NC4CCCC4)c4cc(Cl)c(Cl)cc34)cn2)C1 (stereo not shown) [Example 33, 4-[6-(3-aminopyrrolidin-1-yl)pyridin-3-yl]-6,7-dichloro-N-cyclopentylphthalazin-1-amine]",1240 nM
20,"OC1CCN(c2ccc(-c3nnc(NC4CCCC4)c4cc(Cl)c(Cl)cc34)cn2)C1 (stereo not shown) [Example 34, 1-{5-[6,7-dichloro-4-(cyclopentylamino)phthalazin-1-yl]pyridin-2-yl}pyrrolidin-3-ol]",2730 nM

# Other lines, results leading:
row,IC50,Compound
1,8680 nM,"6,7-dichloro-4-(cyclopentylamino)phthalazine-1-carboxylic acid [Example 38]"
2,808 nM,"CN(CCO)c1cc(-c2nnc(NC3CCCC3)c3cc(Cl)c(Cl)cc23)ccn1 [Example 35, 2-[{4-[6,7-dichloro-4-(cyclopentylamino)phthalazin-1-yl]pyridin-2-yl}(methyl)amino]ethanol]"
3,3490 nM,"OCCNc1cc(-c2nnc(NC3CCCC3)c3cc(Cl)c(Cl)cc23)ccn1 [Example 39, 2-({4-[6,7-dichloro-4-(cyclopentylamino)phthalazin-1-yl]pyridin-2-yl}amino)ethanol]"
4,805 nM,"O=S1(=O)CCN(c2ccc(-c3nnc(NC4CCCC4)c4cc(Cl)c(Cl)cc34)cn2)CC1 [Example 41, 6,7-dichloro-N-cyclopentyl-4-[6-(1,1-dioxidothiomorpholin-4-yl)pyridin-3-yl]phthalazin-1-amine]"
5,255 nM,"O=C(O)Cn1cc(-c2nnc(NC3CCCC3)c3cc(Cl)c(Cl)cc23)cn1 [Example 44, {4-[6,7-dichloro-4-(cyclopentylamino)phthalazin-1-yl]-1H-pyrazol-1-yl}acetic acid]"
6,197 nM,"CCNC(=O)c1nnc(NC2CCCC2)c2cc(Cl)c(Cl)cc12 [Example 45, 6,7-dichloro-4-(cyclopentylamino)-N-ethylphthalazine-1-carboxamide]"
7,5460 nM,"CN(CCO)C(=O)c1nnc(NC2CCCC2)c2cc(Cl)c(Cl)cc12 [Example 46, 6,7-dichloro-4-(cyclopentylamino)-N-(2-hydroxyethyl)-N-methylphthalazine-1-carboxamide]"
8,3780 nM,"O=C(c1nnc(NC2CCCC2)c2cc(Cl)c(Cl)cc12)N1CCCC1 [Example 47, [6,7-dichloro-4-(cyclopentylamino)phthalazin-1-yl](pyrrolidin-1-yl)methanone]"
9,4160 nM,"O=C(c1nnc(NC2CCCC2)c2cc(Cl)c(Cl)cc12)N1CCC(O)C1 (stereo not shown) [Example 48, [6,7-dichloro-4-(cyclopentylamino)phthalazin-1-yl](3-hydroxypyrrolidin-1-yl)methanone]"
10,6090 nM,"CN1CCN(C(=O)c2nnc(NC3CCCC3)c3cc(Cl)c(Cl)cc23)CC1 [Example 49, [6,7-dichloro-4-(cyclopentylamino)phthalazin-1-yl](4-methylpiperazin-1-yl)methanone]"
11,5060 nM,"O=C(c1nnc(NC2CCCC2)c2cc(Cl)c(Cl)cc12)N1CCS(=O)(=O)CC1 [Example 50, [6,7-dichloro-4-(cyclopentylamino)phthalazin-1-yl](1,1-dioxidothiomorpholin-4-yl)methanone]"
12,8210 nM,"O=C(c1nnc(NC2CCCC2)c2cc(Cl)c(Cl)cc12)N1CCOCC1 [Example 51, [6,7-dichloro-4-(cyclopentylamino)phthalazin-1-yl](morpholin-4-yl)methanone]"
13,12800 nM,"O=C(c1nnc(NC2CCCC2)c2cc(Cl)c(Cl)cc12)N1CCC(O)CC1 [Example 52, [6,7-dichloro-4-(cyclopentylamino)phthalazin-1-yl](4-hydroxypiperidin-1-yl)methanone]"
14,1340 nM,"O=C(Nc1ccccc1)c1nnc(NC2CCCC2)c2cc(Cl)c(Cl)cc12 [Example 53, 6,7-dichloro-4-(cyclopentylamino)-N-phenylphthalazine-1-carboxamide]"
15,6010 nM,"O=C(Cn1cc(-c2nnc(NC3CCCC3)c3cc(Cl)c(Cl)cc23)cn1)N1CCCC1 [Example 58, 2-{4-[6,7-dichloro-4-(cyclopentylamino)phthalazin-1-yl]-1H-pyrazol-1-yl}-1-(pyrrolidin-1-yl)ethanone]"
16,766 nM,"O=C(Cn1cc(-c2nnc(NC3CCCC3)c3cc(Cl)c(Cl)cc23)cn1)N1CCC(O)C1 (stereo not shown) [Example 59, 2-{4-[6,7-dichloro-4-(cyclopentylamino)phthalazin-1-yl]-1H-pyrazol-1-yl}-1-(3-hydroxypyrrolidin-1-yl)ethanone]"
17,208 nM,"O=C(Cn1cc(-c2nnc(NC3CCCC3)c3cc(Cl)c(Cl)cc23)cn1)N1CCS(=O)(=O)CC1 [Example 63, 2-{4-[6,7-dichloro-4-(cyclopentylamino)phthalazin-1-yl]-1H-pyrazol-1-yl}-1-(1,1-dioxidothiomorpholin-4-yl)ethanone]"
